In this test the test system is BDF1 mice, colon carcinoma 38 sc, T/C %. In words: NCI In Vivo Anticancer Drug Screen. Data for tumor model Colon Carcinoma 38 (subcutaneous) in B6D2F1 (BDF1) mice. The following applies: endpoint: median tumor weight (est.), higher = larger tumour. The essentials:
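Transplantable tumor in mice; compound-treated vs vehicle-dosed controls. Measured survival or tumor size; value = T ÷ C.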

Where [1] appears, read: dose: 6.25 mg/kg/injection, schedule: Q07DX002 (ip), vehicle: Klucel (hydroxypropylcellulose) (HPC).
Setting [2] is: dose: 12.5 mg/kg/injection, schedule: Q07DX002 (ip), vehicle: Klucel (hydroxypropylcellulose) (HPC).
[3] abbreviates: dose: 25.0 mg/kg/injection, schedule: Q07DX002 (ip), vehicle: Klucel (hydroxypropylcellulose) (HPC).
Setting [4] is: dose: 100.0 mg/kg/injection, schedule: Q07DX002 (ip), vehicle: Klucel (hydroxypropylcellulose) (HPC).
Setting [5] is: dose: 200.0 mg/kg/injection, schedule: Q07DX002 (ip), vehicle: Klucel (hydroxypropylcellulose) (HPC).
The mark [6] stands for this setting: dose: 50.0 mg/kg/injection, schedule: Q07DX002 (ip), vehicle: saline with Tween-80.
Where [7] appears, read: dose: 100.0 mg/kg/injection, schedule: Q07DX002 (ip), vehicle: saline with Tween-80.
[8] abbreviates: dose: 100.0 mg/kg/injection, schedule: Q07DX002 (ip), vehicle: saline.
Where [9] appears, read: dose: 200.0 mg/kg/injection, schedule: Q07DX002 (ip), vehicle: saline with Tween-80.
[10] abbreviates: dose: 200.0 mg/kg/injection, schedule: Q07DX002 (ip), vehicle: saline.
Setting [11] is: dose: 400.0 mg/kg/injection, schedule: Q07DX002 (ip), vehicle: saline.
The mark [12] stands for this setting: dose: 400.0 mg/kg/injection, schedule: Q07DX002 (ip), vehicle: saline with Tween-80.
The mark [13] stands for this setting: dose: 50.0 mg/kg/injection, schedule: Q07DX002 (ip), vehicle: Klucel (hydroxypropylcellulose) (HPC).

Among the data in PubChem BioAssay AID212 (DTP/NCI, 2004) are T/C values, retold here.

Where “and” joins values, the source holds several entries; their conditions need not be identical. Equal entries are not always repeated. Results filed as inconclusive are left out.

Regarding `O=NN(CCCl)C(=O)NC1CCCCC1`, the T/C is, setting by setting: under setting [1], 91 % of control; (dose: 10.0 mg/kg/injection, schedule: Q07DX003 (ip), vehicle: Klucel (hydroxypropylcellulose) (HPC)) 71 % of control; (dose: 10.0 mg/kg/injection, schedule: Q07DX003 (ip), vehicle: carboxymethylcellulose (CMC)) 53 % of control; under setting [2], 64 % of control; (dose: 20.0 mg/kg/injection, schedule: Q07DX003 (ip), vehicle: Klucel (hydroxypropylcellulose) (HPC)) 72 % of control; (dose: 20.0 mg/kg/injection, schedule: Q07DX003 (ip), vehicle: carboxymethylcellulose (CMC)) 47 % of control. Further, the T/C reads like this: under setting [3], 36 % of control; (dose: 40.0 mg/kg/injection, schedule: Q07DX003 (ip), vehicle: Klucel (hydroxypropylcellulose) (HPC)) 44 % of control; (dose: 40.0 mg/kg/injection, schedule: Q07DX003 (ip), vehicle: carboxymethylcellulose (CMC)) 24 % of control; (dose: 80.0 mg/kg/injection, schedule: Q07DX003 (ip), vehicle: Klucel (hydroxypropylcellulose) (HPC)) 33 % of control.
In the case of `CN(C1=NS(=O)(=O)N=C(N(C)c2ccccc2)O1)c1ccccc1`, the T/C runs as follows: (dose: 12.5 mg/kg/injection, schedule: Q07DX003 (ip), vehicle: Klucel (hydroxypropylcellulose) (HPC)) 103 % of control; (dose: 25.0 mg/kg/injection, schedule: Q07DX003 (ip), vehicle: Klucel (hydroxypropylcellulose) (HPC)) 68 % of control; under setting [4], 119 % of control; (dose: 100.0 mg/kg/injection, schedule: Q07DX003 (ip), vehicle: Klucel (hydroxypropylcellulose) (HPC)) 101 % of control; under setting [5], 110 % of control; (dose: 200.0 mg/kg/injection, schedule: Q07DX003 (ip), vehicle: Klucel (hydroxypropylcellulose) (HPC)) 113 % of control. Further, the T/C is 162 % of control (dose: 400.0 mg/kg/injection, schedule: Q07DX002 (ip), vehicle: Klucel (hydroxypropylcellulose) (HPC)); 113 % of control (dose: 400.0 mg/kg/injection, schedule: Q07DX003 (ip), vehicle: Klucel (hydroxypropylcellulose) (HPC)); 104 % of control (dose: 800.0 mg/kg/injection, schedule: Q07DX002 (ip), vehicle: Klucel (hydroxypropylcellulose) (HPC)); 159 % of control (dose: 1600.0 mg/kg/injection, schedule: Q07DX002 (ip), vehicle: Klucel (hydroxypropylcellulose) (HPC)).
Turning to `CN(CO)c1nc(N(C)CO)nc(N(C)CO)n1`, the T/C (dose: 12.5 mg/kg/injection, schedule: Q07DX002 (ip), vehicle: saline) was 95 % of control; the T/C (dose: 12.5 mg/kg/injection, schedule: Q07DX003 (ip), vehicle: saline) was 208 % of control; the T/C (dose: 25.0 mg/kg/injection, schedule: Q07DX002 (ip), vehicle: saline) was 87 % of control; the T/C (dose: 25.0 mg/kg/injection, schedule: Q07DX003 (ip), vehicle: saline) was 165 % of control; the T/C under setting [6] is 117 % of control; the T/C (dose: 50.0 mg/kg/injection, schedule: Q07DX002 (ip), vehicle: saline) is 66 % of control. Besides, the T/C is 81 % of control (dose: 50.0 mg/kg/injection, schedule: Q07DX003 (ip), vehicle: saline); 105 % of control under setting [7]; 46 % of control under setting [8]; 46 % of control (dose: 100.0 mg/kg/injection, schedule: Q07DX003 (ip), vehicle: saline); 55 % of control under setting [9]; 21 % of control under setting [10]. Further, the T/C is, setting by setting: (dose: 200.0 mg/kg/injection, schedule: Q07DX003 (ip), vehicle: saline) 6 % of control; under setting [11], 4 % of control.
Turning to `COC1/C=C\C=C(/C)C(=O)NC2=CC(=O)C=C(C2=O)C(OC)C(C)CC(OC)C(OC)C(C)/C=C(/C)C1OC(N)=O` (configuration not stated), the T/C (dose: 1.5 mg/kg/injection, schedule: Q07DX002 (ip), vehicle: Klucel (hydroxypropylcellulose) (HPC)) was 159 % of control; the T/C (dose: 6.0 mg/kg/injection, schedule: Q07DX002 (ip), vehicle: Klucel (hydroxypropylcellulose) (HPC)) was 117 % of control; the T/C (dose: 12.0 mg/kg/injection, schedule: Q07DX002 (ip), vehicle: Klucel (hydroxypropylcellulose) (HPC)) was 115 % of control.
Consider `COC(=O)C1(F)C(=O)NC(=O)NC1OC` (configuration not stated), for which the T/C runs as follows: under setting [4], 90 % of control; under setting [7], 83 % of control; under setting [5], 72 % of control; under setting [9], 83 % of control; under setting [12], 55 % of control; (dose: 800.0 mg/kg/injection, schedule: Q07DX002 (ip), vehicle: saline with Tween-80) 85 % of control.
For the compound `O=CC=O`, the T/C under setting [6] was 72 % of control and 86 % of control; the T/C under setting [7] is 75 % of control and 77 % of control; the T/C under setting [12] was 80 % of control and 95 % of control.
Take `CN(C)C(=O)c1cccc(COc2ccc(N3C(N)=NC(N)=NC3(C)C)cc2Cl)c1`: the T/C was 87 % of control and 98 % of control (dose: 32.0 mg/kg/injection, schedule: Q07DX003 (ip), vehicle: saline); 50 % of control (dose: 64.0 mg/kg/injection, schedule: Q07DX003 (ip), vehicle: saline); 66 % of control (dose: 128.0 mg/kg/injection, schedule: Q07DX003 (ip), vehicle: saline); 59 % of control (dose: 256.0 mg/kg/injection, schedule: Q07DX003 (ip), vehicle: saline).
Consider `COc1ccc(CC2C(=O)NC(C)C(=O)N(C)C3C(=O)N(C)C(Cc4ccc(O)c(c4)Oc4ccc(cc4)C3O)C(=O)NC(C)C(=O)NC(C)C(=O)N2C)cc1` (configuration not stated), for which the T/C was 98 % of control (dose: 0.5 mg/kg/injection, schedule: Q07DX003 (ip), vehicle: Klucel (hydroxypropylcellulose) (HPC)); 106 % of control (dose: 1.0 mg/kg/injection, schedule: Q07DX003 (ip), vehicle: Klucel (hydroxypropylcellulose) (HPC)); 182 % of control (dose: 4.0 mg/kg/injection, schedule: Q07DX003 (ip), vehicle: Klucel (hydroxypropylcellulose) (HPC)); 159 % of control (dose: 8.0 mg/kg/injection, schedule: Q07DX003 (ip), vehicle: Klucel (hydroxypropylcellulose) (HPC)); 44 % of control (dose: 16.0 mg/kg/injection, schedule: Q07DX003 (ip), vehicle: Klucel (hydroxypropylcellulose) (HPC)).
Take `OC1CCCC2CCCNC12` (configuration not stated): the T/C was 102 % of control under setting [1]; 100 % of control under setting [2]; 85 % of control under setting [3]; 100 % of control under setting [13]; 109 % of control under setting [4].
With `CC(C)C(N)C(=O)Nc1nncs1` (configuration not stated), the T/C is 108 % of control and 98 % of control under setting [8]; 68 % of control and 88 % of control under setting [10]; 45 % of control and 48 % of control under setting [11].
Regarding `CN(C(=S)S(=O)(=O)C12CC3CC(CC(C3)C1)C2)c1ccccc1`, the T/C was 104 % of control (dose: 3.12 mg/kg/injection, schedule: Q07DX002 (ip), vehicle: Klucel (hydroxypropylcellulose) (HPC)); 92 % of control and 102 % of control under setting [1]; 116 % of control and 93 % of control under setting [2]; 101 % of control and 106 % of control under setting [13]; 115 % of control under setting [4]; 105 % of control under setting [5].
Regarding `Cc1ncc([N+](=O)[O-])n1CCSC(N)=O`, the T/C by setting is: (dose: 12.5 mg/kg/injection, schedule: Q07DX003 (ip), vehicle: saline with Tween-80) 111 % of control; (dose: 25.0 mg/kg/injection, schedule: Q07DX003 (ip), vehicle: saline with Tween-80) 164 % of control; (dose: 100.0 mg/kg/injection, schedule: Q07DX003 (ip), vehicle: saline with Tween-80) 108 % of control.
For the compound `C=C(C)/C([O-])=N/[N+](C)(C)CC(O)CCCCCCCCCCCC` (configuration not stated), the T/C is, setting by setting: (dose: 25.0 mg/kg/injection, schedule: Q01DX001 (ip), vehicle: saline) 105 % of control; (dose: 50.0 mg/kg/injection, schedule: Q01DX001 (ip), vehicle: saline) 100 % of control; (dose: 100.0 mg/kg/injection, schedule: Q01DX001 (ip), vehicle: saline) 109 % of control; (dose: 200.0 mg/kg/injection, schedule: Q01DX001 (ip), vehicle: saline) 108 % of control; (dose: 400.0 mg/kg/injection, schedule: Q01DX001 (ip), vehicle: saline) 156 % of control.
